Results published in the NIST ThermoML archive (doi:10.1021/je300993n).
± gives the expanded uncertainty stated by the source.

Assays:
[1] = for mass density: 293.15 K, 101.33 kPa, gas displacement; for Normal melting temperature / Triple point temperature: DTA
[2] = refractive index (Na D-line) (dimensionless); wn = mass fraction of the nth substance listed; conditions: 293.15 K, 101 kPa, Liquid, Standard Abbe refractometry
[3] = refractive index (Na D-line) (dimensionless); conditions: 293.15 K; 101.33 kPa; Liquid; Standard Abbe refractometry

SMILES | refractive index ([2]; w1 = 0.1) | refractive index ([2]; w1 = 0.2) | refractive index ([2]; w1 = 0.3) | refractive index ([2]; w1 = 0.4) | refractive index ([2]; w2 = 0) | further results
CCCC[N+](CC)(CC)CC.F[P-](F)(F)(F)(F)F [N,N,N-triethyl-N-butylammonium hexafluorophosphate] | – | – | – | – | – | mass density ([1]; Crystal): 1366 ± 16 kg/m3; Normal melting temperature ([1]; Crystal 1): 178.90 ± 0.5 °C
CCCC[N+](CC)(CC)CC.F[P-](F)(F)(F)(F)F [N,N,N-triethyl-N-butylammonium hexafluorophosphate] + O=S(=O)(O)C(F)(F)F | 1.3405 ± 0.0052 | 1.3522 ± 0.0052 | 1.3632 ± 0.0051 | 1.3745 ± 0.0051 | – | refractive index ([2]; w1 = 0.5): 1.3786 ± 0.005; refractive index ([2]; w1 = 0.6): 1.3782 ± 0.005
CCCC[N+](CC)(CC)CC.F[B-](F)(F)F [N,N,N-triethyl-N-butylammonium tetrafluoroborate] | – | – | – | – | – | mass density ([1]; Crystal 2): 1140 ± 16 kg/m3; Normal melting temperature ([1]; Crystal 1): 161.90 ± 0.5 °C; Triple point temperature ([1]; Crystal 2): 305.85 ± 0.5 K
CCCC[N+](CC)(CC)CC.F[B-](F)(F)F [N,N,N-triethyl-N-butylammonium tetrafluoroborate] + O=S(=O)(O)C(F)(F)F | 1.3451 ± 0.0052 | 1.3543 ± 0.0051 | 1.3636 ± 0.0051 | 1.3698 ± 0.0051 | – | refractive index ([2]; w1 = 0.5): 1.3771 ± 0.0051; refractive index ([2]; w1 = 0.6): 1.3857 ± 0.0051
CCCCCC[N+](CC)(CC)CC.[F][Sb-]([F])([F])([F])([F])[F] [N,N,N-triethyl-N-hexylammonium hexafluoroantimonate] | – | – | – | – | – | mass density ([1]; Crystal): 1488 ± 16 kg/m3; Normal melting temperature ([1]; Crystal): 174.00 ± 0.5 °C
CCCCCC[N+](CC)(CC)CC.[F][Sb-]([F])([F])([F])([F])[F] [N,N,N-triethyl-N-hexylammonium hexafluoroantimonate] + O=S(=O)(O)C(F)(F)F | 1.3381 ± 0.0051 | 1.3462 ± 0.0051 | 1.3563 ± 0.0051 | 1.3628 ± 0.0051 | – | refractive index ([2]; w1 = 0.5): 1.3722 ± 0.0051; refractive index ([2]; w1 = 0.6): 1.3809 ± 0.0051
CCCCCC[N+](CC)(CC)CC.F[P-](F)(F)(F)(F)F [N,N,N-triethyl-N-hexylammonium hexafluorophosphate] | – | – | – | – | – | mass density ([1]; Crystal): 1351 ± 16 kg/m3; Normal melting temperature ([1]; Crystal): 161.60 ± 0.5 °C
CCCCCC[N+](CC)(CC)CC.F[P-](F)(F)(F)(F)F [N,N,N-triethyl-N-hexylammonium hexafluorophosphate] + O=S(=O)(O)C(F)(F)F | 1.3421 ± 0.0052 | 1.3549 ± 0.0052 | 1.3667 ± 0.0051 | 1.3762 ± 0.0051 | – | –
CCCCCC[N+](CC)(CC)CC.F[B-](F)(F)F [N,N,N-triethyl-N-hexylammonium tetrafluoroborate] | – | – | – | – | – | mass density ([1]; Crystal): 1094 ± 16 kg/m3; Normal melting temperature ([1]; Crystal): 88.20 ± 0.5 °C
CCCCCC[N+](CC)(CC)CC.F[B-](F)(F)F [N,N,N-triethyl-N-hexylammonium tetrafluoroborate] + O=S(=O)(O)C(F)(F)F | 1.3475 ± 0.0052 | 1.3572 ± 0.0051 | 1.3654 ± 0.0051 | 1.3728 ± 0.0051 | – | refractive index ([2]; w1 = 0.5): 1.3782 ± 0.0051
CCCCCCCC[N+](CC)(CC)CC.F[P-](F)(F)(F)(F)F [N,N,N-triethyl-N-octylammonium hexafluorophosphate] | – | – | – | – | – | mass density ([1]; Crystal 2): 1190 ± 16 kg/m3; Normal melting temperature ([1]; Crystal 1): 88.30 ± 0.5 °C; Triple point temperature ([1]; Crystal 2): 311.65 ± 0.5 K
CCCCCCCC[N+](CC)(CC)CC.F[P-](F)(F)(F)(F)F [N,N,N-triethyl-N-octylammonium hexafluorophosphate] + O=S(=O)(O)C(F)(F)F | 1.3427 ± 0.0052 | 1.3562 ± 0.0052 | 1.3681 ± 0.0051 | 1.3781 ± 0.0051 | – | refractive index ([2]; w1 = 0.5): 1.3875 ± 0.0051
CCCCCCCC[N+](CC)(CC)CC.F[B-](F)(F)F [N,N,N-triethyl-N-octylammonium tetrafluoroborate] | – | – | – | – | – | mass density ([1]; Crystal): 1065 ± 16 kg/m3; Normal melting temperature ([1]; Crystal): 101.40 ± 0.5 °C
CCCCCCCC[N+](CC)(CC)CC.F[B-](F)(F)F [N,N,N-triethyl-N-octylammonium tetrafluoroborate] + O=S(=O)(O)C(F)(F)F | 1.3493 ± 0.0052 | 1.3583 ± 0.0051 | 1.3672 ± 0.0051 | 1.3745 ± 0.0051 | – | refractive index ([2]; w1 = 0.5): 1.3811 ± 0.0051
O=S(=O)(O)C(F)(F)F [methanesulfonic acid, trifluoro-] | – | – | – | – | – | refractive index [3]: 1.3292 ± 0.005
O=S(=O)(O)C(F)(F)F [methanesulfonic acid, trifluoro-] + CCCCCCCC[N+](CC)(CC)CC.F[B-](F)(F)F | – | – | – | – | 1.3292 ± 0.005 | –

SMILES | refractive index ([2]; w1 = 0.1) | refractive index ([2]; w1 = 0.2) | refractive index ([2]; w1 = 0.3) | refractive index ([2]; w1 = 0.4) | refractive index ([2]; w2 = 0) | further results
O=S(=O)(O)C(F)(F)F [methanesulfonic acid, trifluoro-] + CCCCCCCC[N+](CC)(CC)CC.F[P-](F)(F)(F)(F)F | – | – | – | – | 1.3292 ± 0.005 | –
O=S(=O)(O)C(F)(F)F [methanesulfonic acid, trifluoro-] + CCCCCC[N+](CC)(CC)CC.F[B-](F)(F)F | – | – | – | – | 1.3292 ± 0.005 | –
O=S(=O)(O)C(F)(F)F [methanesulfonic acid, trifluoro-] + CCCCCC[N+](CC)(CC)CC.F[P-](F)(F)(F)(F)F | – | – | – | – | 1.3292 ± 0.005 | –
O=S(=O)(O)C(F)(F)F [methanesulfonic acid, trifluoro-] + CCCCCC[N+](CC)(CC)CC.[F][Sb-]([F])([F])([F])([F])[F] | – | – | – | – | 1.3292 ± 0.005 | –
O=S(=O)(O)C(F)(F)F [methanesulfonic acid, trifluoro-] + CCCC[N+](CC)(CC)CC.F[B-](F)(F)F | – | – | – | – | 1.3292 ± 0.005 | –
O=S(=O)(O)C(F)(F)F [methanesulfonic acid, trifluoro-] + CCCC[N+](CC)(CC)CC.F[P-](F)(F)(F)(F)F | – | – | – | – | 1.3292 ± 0.005 | –
O=S(=O)(O)C(F)(F)F [methanesulfonic acid, trifluoro-] + CC[N+](CC)(CC)CC.F[B-](F)(F)F | – | – | – | – | 1.3292 ± 0.005 | –
O=S(=O)(O)C(F)(F)F [methanesulfonic acid, trifluoro-] + CC[N+](CC)(CC)CC.F[P-](F)(F)(F)(F)F | – | – | – | – | 1.3292 ± 0.005 | –
O=S(=O)(O)C(F)(F)F [methanesulfonic acid, trifluoro-] + CC[N+](CC)(CC)CC.[F][Sb-]([F])([F])([F])([F])[F] | – | – | – | – | 1.3292 ± 0.005 | –
CC[N+](CC)(CC)CC.[F][Sb-]([F])([F])([F])([F])[F] [tetraethylammonium hexafluoroantimonate] | – | – | – | – | – | mass density ([1]; Liquid): 1715 ± 16 kg/m3
CC[N+](CC)(CC)CC.[F][Sb-]([F])([F])([F])([F])[F] [tetraethylammonium hexafluoroantimonate] + O=S(=O)(O)C(F)(F)F | 1.3349 ± 0.0051 | 1.3408 ± 0.0051 | 1.3498 ± 0.0051 | 1.3571 ± 0.0051 | – | refractive index ([2]; w1 = 0.5): 1.3641 ± 0.0051; refractive index ([2]; w1 = 0.6): 1.3678 ± 0.005
CC[N+](CC)(CC)CC.F[P-](F)(F)(F)(F)F [tetraethylammonium hexafluorophosphate] | – | – | – | – | – | mass density ([1]; Crystal): 1440 ± 16 kg/m3; Normal melting temperature ([1]; Crystal): 77.10 ± 0.5 °C
CC[N+](CC)(CC)CC.F[P-](F)(F)(F)(F)F [tetraethylammonium hexafluorophosphate] + O=S(=O)(O)C(F)(F)F | 1.3398 ± 0.0051 | 1.3499 ± 0.0051 | 1.3602 ± 0.0051 | 1.3691 ± 0.0051 | – | –
CC[N+](CC)(CC)CC.F[B-](F)(F)F [tetraethylammonium tetrafluoroborate] | – | – | – | – | – | mass density ([1]; Crystal): 1220 ± 16 kg/m3; Normal melting temperature ([1]; Crystal): 71.40 ± 0.5 °C
CC[N+](CC)(CC)CC.F[B-](F)(F)F [tetraethylammonium tetrafluoroborate] + O=S(=O)(O)C(F)(F)F | 1.3421 ± 0.0051 | 1.3512 ± 0.0051 | 1.3601 ± 0.0051 | 1.3656 ± 0.0051 | – | refractive index ([2]; w1 = 0.5): 1.3732 ± 0.0051
